A value given as a limit tells only on which side of the number the result lay.

RORγ-LBD, sequence (P51449 269-508): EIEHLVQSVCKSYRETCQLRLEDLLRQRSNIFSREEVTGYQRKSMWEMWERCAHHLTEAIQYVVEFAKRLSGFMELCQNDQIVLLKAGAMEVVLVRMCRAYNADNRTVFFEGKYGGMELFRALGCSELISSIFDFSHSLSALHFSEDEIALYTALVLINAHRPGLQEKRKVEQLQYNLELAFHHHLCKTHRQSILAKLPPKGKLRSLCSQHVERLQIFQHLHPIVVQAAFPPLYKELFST

One assay has as its target RORγ-LBD (Homo sapiens (Human), UniProt P51449). Nature of the assay: LanthaScreen TR-FRET screening of RORγ-LBD / co-activator (Fluorescein-D22) interaction.
Details: not given
A general note: In TR-FRET formats the signal depends on donor and acceptor labels being close together.
The IC50 is the concentration that inhibits the measured activity by half. Regarding `O=C(O)c1ccc(N2C(=O)/C(=C\c3c(Cl)cccc3C3CC3)c3c(Cl)cccc32)cc1O` [Example 14, 4-(3-(2-chloro-6-cyclopropyl-benzylidene)-4-chloro-indolin-2-on-1-yl)-2-hydroxybenzolic acid], the IC50 lay within 100 to 1000 nM.
Same read-out and setting: with `O=C(O)c1ccc(N2C(=O)/C(=C\c3c(F)cccc3F)c3c(F)cccc32)cc1` [Example 18A, (trans)-4-(3-(2,6-difluoro-benzylidene)-4-fluoro-indolin-2-on-1-yl)-benzoic acid] the figure was 1000 to 10000 nM; with `O=C(O)c1ccc(N2C(=O)/C(=C\c3c(F)cccc3Cl)c3c(F)cccc32)cc1` [Example 17A, (trans)-4-(3-(2-chloro-6-fluoro-benzylidene)-4-fluoro-indolin-2-on-1-yl)-benzoic acid], 100 to 1000 nM; with `O=C(O)c1ccc(N2C(=O)/C(=C/c3c(Cl)cccc3C3CC3)c3c(F)cccc32)cc1O` [Example 21B, (cis)-4-(3-(2-chloro-6-cyclopropyl-benzylidene)-4-fluoro-indolin-2-on-1-yl)-2-hydroxy-benzoic acid], 100 to 1000 nM.
As to `COc1cccc2c1/C(=C/c1c(Cl)cccc1Cl)C(=O)N2c1ccc(C(=O)O)c(O)c1` [Example 11, (trans)-4-(3-(2,6-dichloro-benzylidene)-4-methoxyindolin-2-on-1-yl)-2-hydroxybenzolic acid], the IC50 lay in the range of 100 to 1000 nM.
On the same count and under the same terms, with `Cc1cccc2c1/C(=C/c1c(Cl)cccc1C1CC1)C(=O)N2c1ccc(C(=O)O)c(Cl)c1` [Example 24, (trans)-4-(3-(2-chloro-6-cyclopropyl-benzylidene)-4-methylindolin-2-on-1-yl)-2-chloro-benzoic acid] the figure was 100 to 1000 nM; with `CCCc1cccc(Cl)c1/C=C1/C(=O)N(c2ccc(C(=O)O)cc2)c2cccc(F)c21` [Example 20B, (cis)-4-(3-(2-chloro-6-n-propyl-benzylidene)-4-fluoro-indolin-2-on-1-yl)-benzoic acid], 100 to 1000 nM; with `Cc1cccc2c1/C(=C\c1c(Cl)cccc1C1CC1)C(=O)N2c1ccc(C(=O)O)cc1` [Example 2B, (trans)-4-(3-(2-chloro-6-cyclopropyl-benzylidene)-4-methylindolin-2-on-1-yl)-benzoic acid], 100 to 1000 nM.
Compound `COc1cccc2c1/C(=C/c1c(Cl)cccc1Cl)C(=O)N2c1ccc(C(=O)O)cc1` [Example 31, (trans)-4-(3-(2,6-dichloro-benzylidene)-4-methoxyindolin-2-on-1-yl)-benzoic acid] showed an IC50 of 1000 to 10000 nM.
Same read-out and setting: with `O=C(O)c1ccc(N2C(=O)/C(=C\c3c(Cl)cccc3C3CC3)c3c(-c4ccccc4)cccc32)cc1` [Example 13] the figure was 100 to 1000 nM.
On the same count and under the same terms, with `O=C(O)c1ccc(N2C(=O)/C(=C/c3c(F)cccc3F)c3c(F)cccc32)cc1` [Example 18B, (cis)-4-(3-(2,6-difluoro-benzylidene)-4-fluoro-indolin-2-on-1-yl)-benzoic acid] the figure was 1000 to 10000 nM; with `CCCc1cccc(Cl)c1/C=C1\C(=O)N(c2ccc(C(=O)O)cc2)c2cccc(F)c21` [Example 20A, (trans)-4-(3-(2-chloro-6-n-propyl-benzylidene)-4-fluoro-indolin-2-on-1-yl)-benzoic acid], 100 to 1000 nM; with `Cc1cccc2c1/C(=C/c1c(Cl)cccc1C1CC1)C(=O)N2c1ccc(C(=O)O)c(N)c1` [Example 33], 1000 to 10000 nM.
The same measure, in the same setting: with `O=C(O)c1ccc(N2C(=O)/C(=C/c3c(F)cccc3Cl)c3c(F)cccc32)cc1` [Example 17B, (cis)-4-(3-(2-chloro-6-fluoro-benzylidene)-4-fluoro-indolin-2-on-1-yl)-benzoic acid] the figure was 100 to 1000 nM; with `Cc1cccc2c1/C(=C/c1c(Cl)cccc1C1CCC1)C(=O)N2c1ccc(C(=O)O)c(O)c1` [Example 35], 100 to 1000 nM.
For the compound `Cc1cccc2c1/C(=C/c1c(Cl)cccc1C1CC1)C(=O)N2c1ccc(C(=O)O)c(F)c1` [Example 25, (trans)-4-(3-(2-chloro-6-cyclopropyl-benzylidene)-4-methylindolin-2-on-1-yl)-2-fluoro-benzoic acid], the IC50 is 100 to 1000 nM.
As for `Cc1cccc(Cl)c1/C=C1\C(=O)N(c2ccc(C(=O)O)cc2)c2cccc(C)c21` [Example 29, (trans)-4-(3-(2-chloro-6-methyl-benzylidene)-4-methylindolin-2-on-1-yl)-benzoic acid], the IC50 fell in the range of 100 to 1000 nM.
As for `COc1cccc(Cl)c1/C=C1\C(=O)N(c2ccc(C(=O)O)cc2)c2cccc(C)c21` [Example 32, (trans)-4-(3-(2-chloro-6-methoxy-benzylidene)-4-methylindolin-2-on-1-yl)-benzoic acid], the IC50 was in the range of 1000 to 10000 nM.

The assay is the same for the next values; noted with them: read-out: IC50 Values; TR-FRET, 2 nM RORγ-LBD, 150 nM Fluorescein-D22 co-activator.
Take `COc1cccc2c1/C(=C/c1c(Cl)cccc1C1CC1)C(=O)N2c1ccc(C(=O)O)cc1` [Example 30]: the 50% inhibitory concentration (IC50) was less than 100 nM.
As to `Cc1cccc2c1/C(=C/c1c(Cl)cccc1Cl)C(=O)N2c1ccc(C(=O)O)cc1` [Example 5, (trans)-4-(3-(2,6-dichlorobenzylidene)-4-methylindolin-2-on-1-yl)-benzoic acid], the half-inhibitory concentration (IC50) is less than 100 nM.
Same read-out and setting: with `Cc1cccc2c1/C(=C/c1c(Cl)cccc1Br)C(=O)N2c1ccc(C(=O)O)c(O)c1` [Example 7, (trans)-4-(3-(2-chloro-6-bromo-benzylidene)-4-methylindolin-2-on-1-yl)-2-hydroxybenzolic acid] the figure was less than 100 nM; with `CCc1cccc(Cl)c1/C=C1\C(=O)N(c2ccc(C(=O)O)c(O)c2)c2cccc(C)c21` [Example 37, (trans)-4-(3-(2-chloro-6-ethyl-benzylidene)-4-methylindolin-2-on-1-yl)-2-hydroxybenzolic acid], less than 100 nM.
Still for that read-out and setting: with `Cc1cccc2c1/C(=C/c1c(Cl)cccc1C1CCC1)C(=O)N2c1ccc(C(=O)O)cc1` [Example 34] the figure was less than 100 nM; with `Cc1cccc2c1/C(=C/c1c(Cl)cccc1C(C)C)C(=O)N2c1ccc(C(=O)O)c(O)c1` [Example 36, (trans)-4-(3-(2-chloro-6-isopropyl-benzylidene)-4-methylindolin-2-on-1-yl)-2-hydroxybenzolic acid], less than 100 nM; with `O=C(O)c1ccc(N2C(=O)/C(=C\c3c(Cl)cccc3C3CC3)c3c(F)cccc32)cc1O` [Example 21A, (trans)-4-(3-(2-chloro-6-cyclopropyl-benzylidene)-4-fluoro-indolin-2-on-1-yl)-2-hydroxy-benzoic acid], less than 100 nM.
Same read-out and setting: with `Cc1cccc2c1/C(=C/c1c(Cl)cccc1C(F)(F)F)C(=O)N2c1ccc(C(=O)O)c(O)c1` [Example 6, (trans)-4-(3-(2-chloro-6-(trifluoromethyl)-benzylidene)-4-methylindolin-2-on-1-yl)-2-hydroxybenzoic acid] the figure was less than 100 nM.
In the case of `O=C(O)c1ccc(N2C(=O)/C(=C/c3c(Cl)cccc3C(F)(F)F)c3c(F)cccc32)cc1` [Example 19B, (cis)-4-(3-(2-chloro-6-trifluoromethyl-benzylidene)-4-fluoro-indolin-2-on-1-yl)-benzoic acid], the IC50 is less than 100 nM.
Still for that read-out and setting: with `O=C(O)c1ccc(N2C(=O)/C(=C\c3c(Cl)cccc3Cl)c3c(Cl)cccc32)cc1` [Example 23, (trans)-4-(3-(2,6-dichloro-benzylidene)-4-chloro-indolin-2-on-1-yl)-benzoic acid] the figure was less than 100 nM.
Same read-out and setting: with `COc1cccc2c1/C(=C/c1c(Cl)cccc1C1CC1)C(=O)N2c1ccc(C(=O)O)c(O)c1` [Example 8] the figure was less than 100 nM; with `O=C(O)c1ccc(N2C(=O)/C(=C\c3c(Cl)cccc3Cl)c3c(F)cccc32)cc1O` [Example 22A, (trans)-4-(3-(2,6-dichloro-benzylidene)-4-fluoro-indolin-2-on-1-yl)-2-hydroxy-benzoic acid], less than 100 nM; with `Cc1cccc2c1/C(=C/c1c(F)cccc1Cl)C(=O)N2c1ccc(C(=O)O)c(O)c1` [Example 9], less than 100 nM.
On the same count and under the same terms, with `O=C(O)c1ccc(N2C(=O)/C(=C\c3c(Cl)cccc3C3CC3)c3c(F)cccc32)cc1` [Example 16A, (trans)-4-(3-(2-chloro-6-cyclopropyl-benzylidene)-4-fluoro-indolin-2-on-1-yl)-benzoic acid] the figure was less than 100 nM; with `O=C(O)c1ccc(N2C(=O)/C(=C/c3c(Cl)cccc3Cl)c3c(F)cccc32)cc1O` [Example 22B, (cis)-4-(3-(2,6-dichloro-benzylidene)-4-fluoro-indolin-2-on-1-yl)-2-hydroxy-benzoic acid], less than 100 nM.
Turning to `O=C(O)c1ccc(N2C(=O)/C(=C\c3c(Cl)cccc3C(F)(F)F)c3c(F)cccc32)cc1` [Example 19A, (trans)-4-(3-(2-chloro-6-trifluoromethyl-benzylidene)-4-fluoro-indolin-2-on-1-yl)-benzoic acid], the IC50 was less than 100 nM.
For `O=C(O)c1ccc(N2C(=O)/C(=C\c3c(Cl)cccc3C3CC3)c3c(C4CC4)cccc32)cc1O` [Example 12, (trans)-4-(3-(2-chloro-6-cyclopropyl-benzylidene)-4-cyclopropylindolin-2-on-1-yl)-2-hydroxybenzolic acid], the IC50 is less than 100 nM.

For the origin of these results see patent publication US10322108B2, “N-benzoate group substituted benzopyrroline-2-one derivative and use thereof” (BEIJING HANMI PHARMACEUTICAL CO., LTD., priority 2015, dated 2019).
